The test system of one series is IL-5 production. Briefly: Inhibition of IL-5 production by antigen-stimulated murine Th2 clone D10.G4.1 cells (IL-5 ELISA of culture supernatant). It counts as cell-based, mice. The following applies: inhibitory effect on IL-5 production, D10.G4.1 cells with MMC-treated antigen presenting cells and conalbumin, 48 hours incubation.
The test system of the next series is ICR male mice. Briefly: Oral administration safety test in mice (mortality). It counts as in vivo. The settings on record: orally administered to ICR male mice, dose level of 100 mg/kg. From the text:
The compounds of Examples 1 and 2 were orally administered to ICR male mice grouped in fives.

Experimental for IL-5 production: Murine Th2 clone (D10.G4.1 cells) was purchased from ATCC. Antigen presenting cells were prepared by suspending 1 x 10^7 spleen cells of a 8-week-old female C3H/HeN mice in 5 ml of an RPMI-1640 medium and incubated together with 50 µg/ml of mitomycin C (MMC) at 37°C for 30 minutes and then washed with three 50 ml portions of RPMI-1640. To RPMI-1640 containing 10% bovine serium were added 0.5 U of IL-2 (produced by Genzyme) and 5 x 10^-5 M of 2-mercaptoethanol to prepare a medium for tissue culture.
In each well of a 96-well microtiter plate (produced by Corning Glass Works) were put each 50 µl/well of 4 x 10^5 cells/ml of D10.G4.1 cells, 2 x 10^6 cells/ml of MMC-treated antigen presenting cells, 400 µg/ml of conalbumin (produced by Sigma) as an antigen and the solution of the test compound in the tissue culture medium (to make 200 µl/well), and incubated in an incubator under 5% CO2 at 37°C for 48 hours. After completion of the incubation, the supernatant liquor of the culture was collected, and the cells were seprated by centrifugation. The IL-5 in the supernatant liquor was determined with an IL-5 ELISA kit produced by ENDOGEN.

Consider “3-O-(4-Biphenyl)acetyl-5-O-desosaminyl-6-O-methylerythronolide A 11,12-Cyclic Carbonate [Compound of Example 1]”, for which the IC50 (as a rule, the midpoint of a concentration-inhibition curve) in the series on IL-5 production was under 400 nM. Turning to `CCC1OC(=O)C(C)C(Oc2c(F)c(F)c(F)c(F)c2[N+](=O)[O-])C(C)C(OC2OC(C)CC(N(C)C)C2O)C(C)(OC)CC(C)C(=O)C(C)C(O)C1(C)O` (centres unmarked) [Compound of Example 2, 3-O-(2-Nitro-3,4,5,6-tetrafluoro)-phenyl-5-O-desosaminyl-6-O-methylerythronolide A], in the series with IL-5 production, the IC50 was under 100 nM. Further, the death entry with ICR male mice is given as “No death was observed”.

Regarding `CC[C@H]1OC(=O)[C@H](C)[C@@H](O[C@H]2C[C@@](C)(OC)[C@@H](O)[C@H](C)O2)[C@H](C)[C@@H](O[C@@H]2O[C@H](C)C[C@H](N(C)C)[C@H]2O)[C@](C)(O)C[C@@H](C)C(=O)[C@H](C)[C@@H](O)[C@]1(C)O` [Erythromycin, reference compound], the IC50 in the series with IL-5 production (Mus musculus) was 4500 nM. In other words, the single-digit micromolar range.

`CC[C@H]1OC(=O)[C@H](C)[C@@H](O[C@H]2C[C@@](C)(OC)[C@@H](O)[C@H](C)O2)[C@H](C)[C@@H](O[C@@H]2O[C@H](C)C[C@H](N(C)C)[C@H]2O)[C@](C)(O)C[C@@H](C)/C(=N\OCOCCOC)[C@H](C)[C@@H](O)[C@]1(C)O` [Roxithromycin, reference compound] registered an IC50 in the series on IL-5 production (Mus musculus) of 930 nM.

The values are drawn from patent publication EP0771564A1, “INTERLEUKIN-5 PRODUCTION INHIBITOR” (TAISHO PHARMACEUTICAL CO. LTD, priority 1994, dated 1996).
